The numbers were not newly measured in patent US20150045422A1 (priority 2005, published 2015), which cites them from elsewhere.

The subject of data set [1] is HEK (kidney).
Data set [2] concerns HeLa (uterine).
In data set [3] the test system is HEp2 (epidermoid).
Data set [4] concerns HL (lymphocyte).
Data set [5] has as its system Herpes Simplex Virus Type 2 (HSV2).
The subject of data set [6] is HEp-2 cells.

As for Crotocin, the “PSR Potency in Human Cells (IC50) HEK” value in data set [1] was 0.6 µg/mL. In data set [2], the “PSR Potency in Human Cells (IC50) HeLa” value was 0.5 µg/mL. Also, the “PSR Potency in Human Cells (IC50) HEp2” value in data set [3] is 0.25 µg/mL. In data set [4], the “PSR Potency in Human Cells (IC50) HL” value is 2 µg/mL.
As to `CC1=C[C@H]2O[C@@H]3[C@H](O)[C@@H](O)[C@](C)([C@@]2(CO)[C@H](O)C1=O)[C@]31CO1` [NIV, Nivalenol], the “PSR Potency in Human Cells (IC50) HEK” value in data set [1] was 1 µg/mL. For the same molecule, the “PSR Potency in Human Cells (IC50) HeLa” value in data set [2] was 0.3 µg/mL. For the same molecule, in data set [3], the “PSR Potency in Human Cells (IC50) HEp2” value was 0.225 µg/mL. For the same molecule, the “PSR Potency in Human Cells (IC50) HL” value in data set [4] was 0.3 µg/mL. For the same molecule, the “PSR Potency in Human Cells (IC50) HSV2” value in data set [5] is 0.05 µg/mL.
Consider `CC1=C[C@H]2O[C@@H]3[C@H](O)C[C@](C)([C@@]2(CO)[C@H](O)C1=O)[C@]31CO1` [DON, Deoxynivalenol], for which, in data set [1], the “PSR Potency in Human Cells (IC50) HEK” value is 3 µg/mL. Moreover, the “PSR Potency in Human Cells (IC50) HeLa” value in data set [2] is 1 µg/mL. In addition, in data set [3], the “PSR Potency in Human Cells (IC50) HEp2” value was 0.25 µg/mL. The “PSR Potency in Human Cells (IC50) HL” value in data set [4] is 0.5 µg/mL. The “PSR Potency in Human Cells (IC50) HSV2” value in data set [5] was 0.094 µg/mL.
Take `CC(=O)OC[C@]12C[C@H](O)C(C)=C[C@H]1O[C@@H]1[C@H](O)[C@@H](OC(C)=O)[C@@]2(C)[C@]12CO2` [NEOS, neosolaniol]: in data set [1], the “PSR Potency in Human Cells (IC50) HEK” value is 0.06 µg/mL. The “PSR Potency in Human Cells (IC50) HeLa” value in data set [2] is 0.1 µg/mL. The “PSR Potency in Human Cells (IC50) HL” value in data set [4] is 0.05 µg/mL. Moreover, the “PSR Potency in Human Cells (IC50) HSV2” value in data set [5] is 0.052 µg/mL. Moreover, the “concentrations that did not decrease cell viability” value in data set [6] is listed as “below 200 ng/ml”.
With `CC(=O)O[C@@H]1[C@@H](O)[C@H]2O[C@@H]3C=C(C)C(=O)[C@@H](O)[C@]3(CO)[C@]1(C)[C@]21CO1` [FusX, Fusarenon-X], the “PSR Potency in Human Cells (IC50) HEK” value in data set [1] was 1 µg/mL. Moreover, in data set [2], the “PSR Potency in Human Cells (IC50) HeLa” value is 0.1 µg/mL. Also, the “PSR Potency in Human Cells (IC50) HL” value in data set [4] is 0.3 µg/mL. The “PSR Potency in Human Cells (IC50) HSV2” value in data set [5] is 0.026 µg/mL.
